The text below walks through data of patent US9684238B2, “Fluorene-type compound, photopolymerization initiator comprising said fluorene-type compound, and photosensitive composition containing said photopolymerization initiator” (TOKYO OHKA KOGYO CO., LTD., priority 2012, dated 2017).

The nature of data set [1]: Absorption coefficient (absorbance of 0.001% solution in tetrahydrofuran). Conditions: for Λ max (absorption maximum wavelength): 0.001% (wt/vol) in tetrahydrofuran, from 280 nm to 400 nm; for Absorption coefficient at 365 nm / Absorption coefficient at Λ max: 0.001% (wt/vol) solution in tetrahydrofuran. It is filed as physicochemical. The essentials:
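Absorbance of a 0.001% (wt/vol) solution in tetrahydrofuran recorded by spectrophotometer. Absorption maximum wavelength (λmax) taken from the spectrum within 280–400 nm.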

A short description of data set [2]: Decomposition point by thermal analysis (TG-DTA). It counts as physicochemical. Conditions: 5.0 mg. The protocol: The compounds 1, 2, 4, 6, 8, 9, 11, 12, 13, 15, 16, D-1, D-3, D-4, D-7, D-8, D-9, D-12, D-14, D-15, D-20, C-1, and C-2 were each subjected to measurement with a thermal analysis apparatus (TG-DTA) (manufactured by Rigaku Corporation, trade name: “Thermo Plus EVO TG 8120”) by using 5.0 mg thereof.

Data set [3] is described as follows: Solubility in PGME, PGMEA and ethyl lactate. The settings on record: for Solubility Ethyl lactate: in 100 parts by weight of ethyl lactate; for Solubility Ethyl lactate / Solubility PGMEA / Solubility PGME: room temperature; for Solubility PGMEA: in 100 parts by weight of propylene glycol monomethyl ether acetate; for Solubility PGME: in 100 parts by weight of propylene glycol monomethyl ether. It is filed as physicochemical. The protocol: An evaluation for solubility was performed in accordance with the following evaluation criteria based on the dissolution amount.
A: 10 Parts by weight or more of the photopolymerization initiator is dissolved.
B: An amount in the range of from 5 parts by weight or more to less than 10 parts by weight of the photopolymerization initiator is dissolved.
C: An amount in the range of from 2 parts by weight or more to less than 5 parts by weight of the photopolymerization initiator is dissolved.
D: Less than 2 parts by weight of the photopolymerization initiator is dissolved.

The nature of data set [4]: Evaluation 1: 20-μm pattern line width of transparent photosensitive composition. Conditions: for 20-μm pattern line width: transparent composition, initiator 0.4 mmol; for sensitivity to the active energy ray (in words): photopolymerization initiator containing the compound.
Data set [5] in a line: Average transmittance of composition. It is filed as physicochemical. Conditions: photosensitive composition, quartz cell, optical path length 1 cm. The method, then:
The average transmittance (%) of each of the photosensitive resin compositions obtained in Examples 1 to 9, Examples 2-1 to 2-10, and Comparative Examples 1 and 2 in the range of from 400 nm to 700 nm was measured with a spectrophotometer (manufactured by Hitachi High-Technologies Corporation, trade name: “U-3900H”, quartz cell, optical path length; 1 cm).

Data set [6] in a line: Transmittance of transparent cured film. It counts as physicochemical. The settings on record: cured at exposure energy quantity 80 mJ/cm^2. The essentials:
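Films cured at 80 mJ/cm^2 exposure, otherwise prepared as in the earlier film evaluation. Spectrophotometer read in quartz cell, 1 cm path, giving transmittance (%) at 400 nm and average transmittance (%) over 400–700 nm.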

The nature of data set [7]: Evaluation 3: 20-μm pattern line width of black photosensitive composition. Conditions: black composition (carbon black, cardo resin), initiator 0.4 mmol. The source says: The mixture was filtered with a membrane filter having an aperture of 5 μm to provide a photosensitive composition.
Photosensitive compositions were each obtained in the same manner as in Example 10 except that the used fluorene-based compound and its usage were changed as shown in Table 5.
Each of the photosensitive compositions obtained in Examples 10 to 15, Examples 2-11 to 2-20, and Comparative Example 3 was applied onto a glass substrate with a spin coater (manufactured by Kyowariken Co., Ltd., trade name: “K-359SD1”) so that its thickness after drying became 1.0 μm. The glass substrate after the application was dried with a fan dryer at 90° C. for 10 minutes. Thus, a coating film (photosensitive layer) was formed. Next, the film was exposed to light having an exposure energy quantity of 10 mJ/cm^2, 20 mJ/cm^2, 40 mJ/cm^2, 60 mJ/cm^2, or 80 mJ/cm^2 by using a high-pressure mercury lamp (manufactured by Karl Suss, trade name: “MASK ALIGNER”) through a negative mask (mask width: 20 μm). Next, the resultant was immersed in a 0.1 wt % aqueous solution of tetra methyl ammonium hydroxide (TMAH) and then rinsed with pure water. The remaining cured film was subjected to the following evaluation. In addition, FIGS. 2, 3, and 6 show microscope photographs of black cured films obtained by using the photosensitive compositions of Examples 10 and 11, and Comparative Example 3, and FIGS. 7 to 11 show microscope photographs of black cured films obtained by using the photosensitive compositions of Examples 2-11, 2-13, 2-14, 2-17, and 2-18.
A larger value for the line width means higher sensitivity.

The mark [8] stands for this setting: exposure energy quantity 5 mJ/cm^2.
[9] abbreviates: exposure energy quantity 10 mJ/cm^2.
[10] abbreviates: exposure energy quantity 20 mJ/cm^2.
The mark [11] stands for this setting: exposure energy quantity 40 mJ/cm^2.
Where [12] appears, read: exposure energy quantity 80 mJ/cm^2.

For `CCCC1(CCC)c2cc(C(=O)/C(C)=N/OC(C)=O)ccc2-c2ccc(C(=O)c3ccc([N+](=O)[O-])cc3)cc21` [Compound D-9], the “Λ max (absorption maximum wavelength)” value in data set [1] amounted to 343.0 nm. Besides, the “Absorption coefficient at 365 nm” value in data set [1] is 29.1 mL/mg/cm. For the same compound, in data set [1], the “Absorption coefficient at Λ max” value is 63.7 mL/mg/cm. Besides, in data set [2], the Decomposition point was determined as 228.9 °C. Further, the “Solubility Ethyl lactate” value in data set [3] is “C (An amount in the range of from 2 parts by weight or more to less than 5 parts by weight of the photopolymerization initiator is dissolved.)”. Moreover, the “Solubility PGMEA” value in data set [3] is recorded as “C (An amount in the range of from 2 parts by weight or more to less than 5 parts by weight of the photopolymerization initiator is dissolved.)”. Further, the “Solubility PGME” value in data set [3] was “D (Less than 2 parts by weight of the photopolymerization initiator is dissolved.)”. Also, the “20-μm pattern line width” value is 19.3 in data set [4] (setting [8]); 19.5 in data set [4] (setting [9]); 20.0 in data set [4] (setting [10]); 20.7 in data set [4] (setting [11]); 21.7 in data set [4] (setting [12]); 18.8 in data set [7] (10 mJ/cm^2). For the same compound, the “20-μm pattern line width” value in data set [7] (20 mJ/cm^2) came out at 19.1; in data set [7] (40 mJ/cm^2), 20.1; in data set [7] (60 mJ/cm^2), 20.9; in data set [7] (80 mJ/cm^2), 21.2. Moreover, the “Average transmittance (700 nm to 400 nm) Solution” value in data set [5] was determined as 70.9%. The “Average transmittance (700 nm to 400 nm) Transparent cured film” value in data set [6] worked out at 99.8%. Moreover, the “Transmittance (400 nm) Transparent cured film” value in data set [6] is on record as 96.4%.
On to `CCn1c2ccc(C(=O)c3ccccc3C)cc2c2cc(/C(C)=N/OC(C)=O)ccc21` [Compound C-1, reference compound], for which, in data set [1], the “Λ max (absorption maximum wavelength)” value is reported as 298.5 nm. Moreover, the “Absorption coefficient at 365 nm” value in data set [1] was 4.4 mL/mg/cm. Also, the “Absorption coefficient at Λ max” value in data set [1] was 94.4 mL/mg/cm. Also, the Decomposition point in data set [2] was 216.4 °C. Also, the “Solubility Ethyl lactate” value in data set [3] is “C (An amount in the range of from 2 parts by weight or more to less than 5 parts by weight of the photopolymerization initiator is dissolved.)”. The “Solubility PGMEA” value in data set [3] is on record as “B (An amount in the range of from 5 parts by weight or more to less than 10 parts by weight of the photopolymerization initiator is dissolved.)”. The “Solubility PGME” value in data set [3] is listed as “B (An amount in the range of from 5 parts by weight or more to less than 10 parts by weight of the photopolymerization initiator is dissolved.)”. In addition, the “20-μm pattern line width” value in data set [4] (setting [10]) was determined as 20.4; in data set [4] (setting [11]), 22.1; in data set [4] (exposure energy quantity 60 mJ/cm^2), 22.3; in data set [4] (setting [12]), 22.4; in data set [7] (10 mJ/cm^2), 18.5; in data set [7] (20 mJ/cm^2), 19.0. Besides, the “20-μm pattern line width” value in data set [7] (40 mJ/cm^2) is on record as 20.0; in data set [7] (60 mJ/cm^2), 20.9; in data set [7] (80 mJ/cm^2) it was 21.2. Further, in data set [5], the “Average transmittance (700 nm to 400 nm) Solution” value was 94.2%. Besides, the “Average transmittance (700 nm to 400 nm) Transparent cured film” value in data set [6] was 99.8%. Moreover, the “Transmittance (400 nm) Transparent cured film” value in data set [6] was determined as 98.9%.
With `CCCC1(CCC)c2cc(C(CCCCl)=NOC(C)=O)ccc2-c2ccc([N+](=O)[O-])cc21` [Compound D-12], the “Λ max (absorption maximum wavelength)” value in data set [1] is on record as 345.5 nm. Moreover, in data set [1], the “Absorption coefficient at 365 nm” value is 39.0 mL/mg/cm. Besides, the “Absorption coefficient at Λ max” value in data set [1] was 58.4 mL/mg/cm. This compound had a Decomposition point in data set [2] of 174.7 °C. In data set [3], the “Solubility Ethyl lactate” value is recorded as “B (An amount in the range of from 5 parts by weight or more to less than 10 parts by weight of the photopolymerization initiator is dissolved.)”. Moreover, in data set [3], the “Solubility PGMEA” value is “A (10 Parts by weight or more of the photopolymerization initiator is dissolved.)”. The “Solubility PGME” value in data set [3] was “A (10 Parts by weight or more of the photopolymerization initiator is dissolved.)”. Besides, the “solubility (in words)” value in data set [3] (photopolymerization initiator containing the compound) is reported as “additionally excellent solubility”. The “sensitivity to the active energy ray (in words)” value in data set [4] was “additionally high sensitivity to the active energy ray”. Also, the “20-μm pattern line width” value worked out at 19.8 in data set [4] (setting [8]); 20.6 in data set [4] (setting [9]); 21.4 in data set [4] (setting [10]); 22.3 in data set [4] (setting [11]); 23.3 in data set [4] (setting [12]); 19.1 in data set [7] (10 mJ/cm^2). The “20-μm pattern line width” value in data set [7] (20 mJ/cm^2) was 20.5; in data set [7] (40 mJ/cm^2), 21.6; in data set [7] (60 mJ/cm^2) it was 22.5; in data set [7] (80 mJ/cm^2), 22.7. The “Average transmittance (700 nm to 400 nm) Solution” value in data set [5] was 79.9%. Further, the “Average transmittance (700 nm to 400 nm) Transparent cured film” value in data set [6] came to 99.7%. Also, the “Transmittance (400 nm) Transparent cured film” value in data set [6] came out at 93.6%.
As for `CCCC1(CCC)c2cc(C(C)=NOC(C)=O)ccc2-c2ccc([N+](=O)[O-])cc21` [Compound D-3], in data set [1], the “Λ max (absorption maximum wavelength)” value is 345.5 nm. Besides, in data set [1], the “Absorption coefficient at 365 nm” value turned out to be 46.3 mL/mg/cm. Further, the “Absorption coefficient at Λ max” value in data set [1] was found to be 67.8 mL/mg/cm. For the same compound, the Decomposition point in data set [2] was 272.2 °C. For the same compound, the “Solubility Ethyl lactate” value in data set [3] was “D (Less than 2 parts by weight of the photopolymerization initiator is dissolved.)”. Besides, the “Solubility PGMEA” value in data set [3] is reported as “C (An amount in the range of from 2 parts by weight or more to less than 5 parts by weight of the photopolymerization initiator is dissolved.)”. Also, the “Solubility PGME” value in data set [3] is recorded as “D (Less than 2 parts by weight of the photopolymerization initiator is dissolved.)”. For the same compound, the “sensitivity to the active energy ray (in words)” value in data set [4] is “additionally high sensitivity to the active energy ray”. The “20-μm pattern line width” value in data set [4] (setting [8]) is reported as 19.6; in data set [4] (setting [9]), 20.9; in data set [4] (setting [10]), 21.4; in data set [4] (setting [11]), 22.5; in data set [4] (setting [12]), 23.8; in data set [7] (10 mJ/cm^2), 19.6. For the same compound, the “20-μm pattern line width” value was determined as 20.6 in data set [7] (20 mJ/cm^2), 21.6 in data set [7] (40 mJ/cm^2), 22.1 in data set [7] (60 mJ/cm^2) and 22.6 in data set [7] (80 mJ/cm^2). Besides, in data set [5], the “Average transmittance (700 nm to 400 nm) Solution” value came to 88.9%. Also, the “Average transmittance (700 nm to 400 nm) Transparent cured film” value in data set [6] is 99.8%. Also, in data set [6], the “Transmittance (400 nm) Transparent cured film” value is on record as 95.2%.
